Laboratory results from patent publication US20110183904A1, “METHODS AND COMPOSITIONS FOR ALTERING BEHAVIOR ASSOCIATED WITH AUTISM SPECTRUM DISORDER” (The Children's Mercy Hospital, priority 2008, published 2011).
Entries after “also recorded” stand apart in the source; their conditions may differ.

Tests used:
[1] = test system: adults with ASD; conditions: cited from earlier work
[2] = test system: Gαs in murine spleen cells; experiment: Gαs expression in murine spleen cells exposed to OT (previous findings in this lab); type: cell-based; conditions: both sexes
[3] = test system: Gαs and Gαq protein in PBMCs; experiment: G-protein expression (Gαs and Gαq) in PBMCs exposed to oxytocin (immunoblot); type: cell-based, human
Experimental: Membrane preparation for membrane-associated proteins. For protein studies, PBMC's were manipulated at 4° C., as previously described in Example 4. PBMC's were individually homogenized (1:30, wt/vol) in ice-cold 0.25 M sucrose and 50 mM Tris-HCL, (pH 7.6) in a Dounce homogenizer, centrifuged twice at 800×g for 5 min before centrifugation of the supernatants at 30,000×g for 60 min. The pellet was resuspended in assay buffer and used directly in the binding assay. Protein concentration was determined by BCA protein assay kit (Pierce, Rockford, Ill.) using bovine serum albumin (BSA) as a standard.
Immunoblot analysis for membrane-associated proteins. Total membrane proteins were prepared as for receptor assays above. Samples were electrophoresed in 12% Tris-HCl resolving gels and transferred to 0.45 μm nitrocellulose membranes (Bio-Rad, Hercules, Calif.) by electroblotting. […] After three washes in TBST, membranes were incubated for 1 h in TBST and 1% non fat dry milk with horseradish peroxidase conjugated 2° antibodies (Jackson Immunoresearch, West Grove, Pa.). Bands were visualized by exposure of the membranes to autoradiographic film (MidSci, St. Louis, Mo.). The membranes were then stripped with Restore™ Western Blot Stripping Buffer (Pierce, Rockford Ill.) for 30 min at 37° C. and reprobed for actin protein as an internal control. The bands were quantified using a densitometer (GE Healthcare, Piscataway, N.J.).
Specific G protein antibodies. Specific Gαs and Gαq/11 antibodies made in rabbit without cross reactivity to other G proteins were used at a 1:500 dilution and originated from Santa Cruz Biotechnology (Santa Cruz, Calif.).

[4] = test system: Gαq mRNA in PBMCs; experiment: Gαq mRNA in PBMCs co-cultured with OT; type: cell-based, human
Experimental: (§1) Both Gαs and Gαq mRNA were measured after PBMCs were incubated with vehicle (untreated condition) and after co-culture with hormone. For some subjects, the PBMC quantity yielded insufficient mRNA for PCR analysis. Gαs PCR was completed on 10 ASD girls, 9 control girls, 10 ASD boys, and 9 control boys. Gαq PCR was completed on 10 ASD girls, 8 control girls, 10 ASD boys, and 9 control boys.
(§2) Samples were taken from the patients, as described in Example 1, and mRNA was isolated from cells exposed to oxytocin and analyzed for amount of mRNA expressing Gαs and Gαq.
(§3) PBMC isolation, hormone treatment and cell culture. PBMCs were isolated from heparinized blood using Histopaque 1077 (Sigma-Aldrich, St. Louis, Mo.). Briefly, 5 ml of blood was diluted 1:1 in PBS and carefully layered onto 3 ml of Histopaque 1077 in a 50 ml conical centrifuge tube. Tubes were centrifuged at 400 g for 30 min at RT. The buffy coat was removed from the tube and washed three times in complete RPMI without phenol red. Cell counts and viability were determined using Trypan blue. Cell viability was >95%. […]
(§4) RNA isolation and quantitation. […] RNA was examined by spectrophotometry and quantitated using the Ribogreen assay (Invitrogen, Carlsbad, Calif.). […] Ribogreen reagent (1:200) was added to samples and standards, and samples were read on a Bio-Tek FLx800 fluorescent plate reader. […]

[5] = test system: male university students; conditions: intra-nasally; cited from earlier work
[6] = test system: Gαs mRNA in PBMCs; experiment: Gαs mRNA in PBMCs co-cultured with OT; type: cell-based, human
Experimental: as §1, §2, §3, §4

[7] = test system: Gαs mRNA and Gαq mRNA in PBMCs; experiment: G-protein mRNA (Gαs and Gαq) in PBMCs exposed to oxytocin; type: cell-based, human
Experimental: as §1, §2
PBMC isolation, hormone treatment and cell culture. PBMCs were isolated from heparinized blood using Histopaque 1077 (Sigma-Aldrich, St. Louis, Mo.). Briefly, 5 ml of blood was diluted 1:1 in PBS and carefully layered onto 3 ml of Histopaque 1077 in a 50 ml conical centrifuge tube. Tubes were centrifuged at 400 g for 30 min at RT. The buffy coat was removed from the tube and washed three times in complete RPMI without phenol red. Cell counts and viability were determined using Trypan blue. Cell viability was >95%. Resultant PBMC's were suspended in complete RPMI with 10% charcoal stripped, dilapidated fetal calf serum (FCS) (Invitrogen, Carlsbad, Calif.) and added in 1 ml aliquots to 12 well plate with vehicle and oxytocin (10 ^−7M, 10 ^−8M, and 10^−9M) in RPMI+10% charcoal stripped, dilapidated FCS. Cells were incubated overnight (18-24 hr) before wells were harvested and rinsed. Cell suspensions were centrifuged at 500 g for 10 min at RT, and supernatant was aspirated. Buffer RLT Plus from the RNeasy Mini Plus Kit (QIAgen, Valencia, Calif.) was added to the cell pellets before vortexing to lyse cells. Samples were stored at −80° C. before RNA purification and isolation.
RNA isolation and quantitation. Samples were thawed, vortexed, and placed in QIAshredder columns. Columns were centrifuged for 2 min at 15000 g. The homogenized lysate was transferred to a gDNA Eliminator spin column and centrifuged for 30 sec at 9000 g. Equal volumes of 70% ethanol were added to the eluent. The mixture was transferred to RNeasy spin columns and centrifuged for 15 sec at 9000 g. Columns were washed with Buffer RW1 and the Buffer RPE, centrifuging for 15 sec at 9000 g, each time discarding the eluent. Buffer RPE was again added and columns centrifuged for 2 min at 9000 g to dry the column. Columns were then centrifuged for 1 min at 15000 g. RNA was eluted with the addition of Nuclease-free water and spun for 1 min at 9000 g. RNA was examined by spectrophotometry and quantitated using the Ribogreen assay (Invitrogen, Carlsbad, Calif.). Samples were diluted 1:200. Standards of 0, 20, 100, 500, and 1000 ng/ml were made from E. coli ribosomal RNA in TE buffer. Ribogreen reagent (1:200) was added to samples and standards, and samples were read on a Bio-Tek FLx800 fluorescent plate reader. RNA was diluted in nuclease-free water to a final concentration of 150 ng/ml cDNA.
cDNA construction and one-step real-time RT-PCR. Reverse transcription was performed using the SuperScript II Reverse Transcription Kit (Invitrogen, Carlsbad, Calif.). First, any residual DNA was digested away with DNase I for 15 min, with DNase activity subsequently quenched with 25 mM EDTA at 65° C. for 15 min. 10 mM dNTP and 0.5 ug/ml oligo (dT) were added to DNase-treated samples at 65° C. for 5 min. […]

[8] = children with ASD versus controls

## CC[C@H](C)[C@@H]1NC(=O)[C@H](Cc2ccc(O)cc2)NC(=O)[C@@H](N)CSSC[C@@H](C(=O)N2CCC[C@H]2C(=O)N[C@@H](CC(C)C)C(=O)NCC(N)=O)NC(=O)[C@H](CC(N)=O)NC(=O)[C@H](CCC(N)=O)NC1=O [OT, Oxytocin]
[1]; OT infusion
  affective speech comprehension: improved
[1]; intravenous OT infusion
  severity and number of different types of repetitive behaviors: decreased
[2]
  Gαs expression with exposure to OT: c. Previous findings in this lab had found sex differences in Gαs in murine spleen cells as well as induction of Gαs expression in both sexes with exposure to OT,
[3]; children with autism
  protein expression after exposure to oxytocin: not seen
[3]; females with autism
  protein expression after exposure to oxytocin: upward trend
[3]; males with autism
  protein expression after exposure to oxytocin: not observed
[3]; non-autistic patients
  protein expression after exposure to oxytocin: went up
[4]; [8]
  difference in Gαq mRNA expression between ASD and control PBMCs upon exposure to OT: no longer significant
[4]; girls versus boys
  sex differences in Gαq mRNA expression with OT: not augmented
[5]
  trust and prosocial behavior: might increase trust and prosocial behavior
[6]; [8]
  difference in Gαs mRNA expression between ASD and control PBMCs upon exposure to OT: no longer observed; also recorded: did not have the significantly increased Gαs mRNA
[6]; girls versus boys, any group
  sex differences in Gαs expression with OT exposure: not augmented
[7]; autistic males, compared with control females before exposure
  mRNA pattern after exposure to oxytocin: more feminine pattern
[7]; children with autism
  mRNA levels after exposure to oxytocin: not seen
[7]; females with autism
  mRNA levels after exposure to oxytocin: upward trend
[7]; males with autism
  mRNA levels after exposure to oxytocin: not observed
[7]; non-autistic patients
  mRNA levels after exposure to oxytocin: went up
